Patent US20100029620A1, “SUBSTITUTED TRIAZOLINE, TETRAZOLONE AND IMIDAZOLONE DERIVATIVES FOR USE AS A MEDICINE” (JANSSEN PHARMACEUTICA N.V., priority 2004, published 2010)

How the values were obtained:
[1] = target: T1, human adrenergic-α2A receptor (Homo sapiens, UniProt P08913); test: Radioligand binding experiment for α2A-adrenoceptor ([3H]-raulwolscine competition, CHO cell membranes); settings: [3H]raulwolscine 1 nM, membranes of CHO cells transfected with human α2A receptor; read-out: pIC50 α2A (converted)
T1 construct: expressed in transfected cells; membrane preparation
T1 sequence (P08913 1-465): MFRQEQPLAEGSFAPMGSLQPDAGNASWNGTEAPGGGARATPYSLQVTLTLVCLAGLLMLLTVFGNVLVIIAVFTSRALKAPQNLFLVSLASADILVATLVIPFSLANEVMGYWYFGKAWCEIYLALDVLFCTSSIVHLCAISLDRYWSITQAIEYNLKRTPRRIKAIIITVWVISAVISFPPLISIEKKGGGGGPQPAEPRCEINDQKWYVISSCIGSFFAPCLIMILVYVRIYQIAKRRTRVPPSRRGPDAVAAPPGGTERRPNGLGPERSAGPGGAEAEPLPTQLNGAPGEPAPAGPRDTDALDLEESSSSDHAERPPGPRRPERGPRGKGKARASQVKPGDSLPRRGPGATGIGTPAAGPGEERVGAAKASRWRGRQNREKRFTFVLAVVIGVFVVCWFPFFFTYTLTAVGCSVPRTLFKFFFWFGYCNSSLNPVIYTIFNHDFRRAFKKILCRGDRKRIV
Description: (§1) The interaction of the compounds of Formula (I) with α2C-adrenoceptor receptors was assessed in in vitro radioligand binding experiments. In general, a low concentration of a radioligand with a high binding affinity for a particular receptor or transporter is incubated with a sample of a tissue preparation enriched in a particular receptor or transporter or with a preparation of cells expressing cloned human receptors in a buffered medium. During the incubation, the radioligand binds to the receptor or transporter. When equilibrium of binding is reached, the receptor bound radioactivity is separated from the non-bound radioactivity, and the receptor- or transporter-bound activity is counted. The interaction of the test compounds with the receptor is assessed in competition binding experiments. Various concentrations of the test compound are added to the incubation mixture containing the receptor- or transporter preparation and the radioligand. The test compound in proportion to its binding affinity and its concentration inhibits binding of the radioligand. The radioligand used for […] receptor binding was [^3H]-raulwolscine.
(§2) CHO cells, stabile transfected with human adrenergic-α2A-, -α2B or α2C receptor cDNA, were cultured in Dulbecco's Modified Eagle's Medium (DMEM)/Nutrient mixture Ham's F12 (ratio 1:1)(Gibco, Gent-Belgium) supplemented with 10% heat inactivated fetal calf serum (Life Technologies, Merelbeke-Belgium) and antibiotics (100 IU/ml penicillin G, 100 μg/ml streptomycin sulphate, 110 μg/ml pyruvic acid and 100 μg/ml L-glutamine). One day before collection, cells were induced with 5 mM sodiumbutyrate. Upon 80-90% of confluence, cells were scraped in phosphate buffered saline without Ca^2+ and Mg^2+ and collected by centrifugation at 1500×g for 10 min. The cells were homogenised in Tris-HCl 50 mM using an Ultraturrax homogenizer and centrifuged for 10 min at 23,500×g. The pellet was washed once by resuspension and rehomogenization and the final pellet was resuspended in Tris-HCl, divided in 1 ml aliquots and stored at −70° C.
(§3) Membranes were thawed and re-homogenized in incubation buffer (glycylglycine 25 mM, pH 8.0). In a total volume of 500 μl, 2-10 μg protein was incubated with [^3H]raulwolscine (NET-722) (New England Nuclear, USA) (1 nM final concentration) with or without competitor for 60 min at 25° C. followed by rapid filtration over GF/B filter using a Filtermate196 harvester (Packard, Meriden, Conn.). Filters were rinsed extensively with ice-cold rinsing buffer (Tris-HCl 50 mM pH 7.4). Filter-bound radioactivity was determined by scintillation counting in a Topcount (Packard, Meriden, CT) and results were expressed as counts per minute (cpm). Non-specific binding was determined in the presence of 1 μM oxymetazoline for hα2A- and hα2B receptors and 1 μM spiroxatrine for hα2C receptors.
(§4) Data from assays in the presence of compound were calculated as a percentage of total binding measured in the absence of test compound. Inhibition curves, plotting percent of total binding versus the log value of the concentration of the test compound, were automatically generated, and sigmoidal inhibition curves were fitted using non-linear regression. The pIC50 values of test compounds were derived from individual curves.

[2] = target: T2, human adrenergic-α2B receptor (Homo sapiens, UniProt P18089); test: Radioligand binding experiment for α2B-adrenoceptor ([3H]-raulwolscine competition, CHO cell membranes); settings: [3H]raulwolscine 1 nM, membranes of CHO cells transfected with human α2B receptor; for IC50: read-out: pIC50 α2B (converted)
T2 construct: expressed in transfected cells; membrane preparation
T2 sequence (P18089 1-450): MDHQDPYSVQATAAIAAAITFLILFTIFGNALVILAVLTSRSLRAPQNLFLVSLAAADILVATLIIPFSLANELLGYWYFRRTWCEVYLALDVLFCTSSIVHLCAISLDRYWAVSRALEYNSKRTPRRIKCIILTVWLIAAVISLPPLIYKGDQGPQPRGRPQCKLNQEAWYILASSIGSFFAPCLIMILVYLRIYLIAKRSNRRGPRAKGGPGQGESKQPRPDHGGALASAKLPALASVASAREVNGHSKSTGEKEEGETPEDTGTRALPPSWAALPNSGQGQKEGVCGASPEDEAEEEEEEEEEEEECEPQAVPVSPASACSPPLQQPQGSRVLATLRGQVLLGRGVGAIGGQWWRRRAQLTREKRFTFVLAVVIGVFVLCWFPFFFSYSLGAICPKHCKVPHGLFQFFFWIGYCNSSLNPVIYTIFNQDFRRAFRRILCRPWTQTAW
Description: as §1, §2, §3, §4

[3] = target: T3, human adrenergic-α2C receptor (Homo sapiens, UniProt P18825); test: Radioligand binding experiment for α2C-adrenoceptor ([3H]-raulwolscine competition, CHO cell membranes); settings: [3H]raulwolscine 1 nM, membranes of CHO cells transfected with human α2C receptor; read-out: pIC50 α2C (converted)
T3 construct: expressed in transfected cells; membrane preparation
T3 sequence (P18825 1-462): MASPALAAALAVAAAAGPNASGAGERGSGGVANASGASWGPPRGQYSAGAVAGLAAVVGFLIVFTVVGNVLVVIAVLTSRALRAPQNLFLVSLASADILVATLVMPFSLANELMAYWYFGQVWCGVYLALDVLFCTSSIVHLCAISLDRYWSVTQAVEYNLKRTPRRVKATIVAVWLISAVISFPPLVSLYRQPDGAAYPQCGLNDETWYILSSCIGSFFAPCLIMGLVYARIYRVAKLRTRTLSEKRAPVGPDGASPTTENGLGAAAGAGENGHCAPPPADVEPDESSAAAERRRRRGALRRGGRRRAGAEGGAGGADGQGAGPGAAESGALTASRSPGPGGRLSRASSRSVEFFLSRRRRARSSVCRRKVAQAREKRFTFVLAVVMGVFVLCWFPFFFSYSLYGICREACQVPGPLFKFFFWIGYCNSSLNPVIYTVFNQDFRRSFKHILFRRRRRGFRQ
Description: as §1, §2, §3, §4

SMILES | IC50 [1] | IC50 [2] | IC50 [3] | pIC50 α2B [2]
C/C(=C\c1ccc(F)cc1)CN1CCN(CCn2ncn(Cc3ccc(CN)cc3)c2=O)CC1 [compound 35] | 0.126 µM |  | 0.0501 µM | 
COc1ccc(N2CCN(c3ccc(-n4cnn(Cc5ccc(CN6CCOCC6)cc5)c4=O)cc3)CC2)cc1 [compound 59] | 1.58 µM |  | 0.631 µM | 
O=c1n(-c2ccc(CN3CCOCC3)cc2)cnn1CC1CCN(Cc2cc3ccccc3o2)CC1 [compound 77] | 3.16 µM |  | 0.251 µM | 
CC(C)N1CCc2cc(-n3cnn(CCNCCOc4ccccc4)c3=O)ccc2C1 [compound 103] | 0.501 µM | 0.794 µM | 0.0251 µM | 
O=c1n(CCNCCOc2ccccc2)nnn1-c1ccc(CN2CCOCC2)cc1 [compound 106] | 0.398 µM |  | 0.0398 µM | 
CN(Cc1ccccc1)Cc1ccc(-n2cnn(CCNCCOc3ccccc3)c2=O)cc1 [compound 94] | 0.0316 µM | 0.126 µM | 0.00316 µM | 
O=c1n(-c2ccc(CN3CCOCC3)cc2)cnn1CCNCCOc1ccccc1 [compound 24] | 0.251 µM |  | 0.00501 µM | 6.6
C/C(=C\c1ccccc1)CN1CCC(n2cnn(CCN(C)CCOc3ccccc3)c2=O)CC1 [compound 30] | 0.398 µM | 0.2 µM | 0.0158 µM | 
COc1ccc(N2CCN(c3ccc(-n4cnn(C5CCN(CCOc6ccccc6)CC5)c4=O)cc3)CC2)cc1 [compound 58] | 1.26 µM |  | 0.0501 µM | 
COc1ccc(N2CCN(c3ccc(-n4cnn(CCN(C)CCOc5ccccc5)c4=O)cc3)CC2)cc1 [compound 9] | > 10 µM |  | 0.794 µM | 
C/C(=C\c1ccccc1)CN1CCC(n2cnn(Cc3ccc(CN4CCOCC4)cc3)c2=O)CC1 [compound 81] | 0.631 µM |  | 0.0794 µM | 
Cc1cc(CN2CCC(Cn3ncn(-c4ccc(CN5CCOCC5)cc4)c3=O)CC2)oc1C [compound 76] | > 10 µM |  | 0.794 µM | 
C/C(=C\c1ccccc1)CN1CCC(Cn2ncn(-c3ccc(CN4CCOCC4)cc3)c2=O)CC1 [compound 70] | 0.398 µM |  | 0.0398 µM | 
O=c1n(-c2ccc(N3CCOCC3)cc2)cnn1CCNCCOc1ccccc1 [compound 22] | 0.794 µM |  | 0.0501 µM | 
COc1ccc(N2CCN(c3ccc(-n4cnn(C5CCN(Cc6ccc7c(c6)OCCO7)CC5)c4=O)cc3)CC2)cc1 [compound 56] | > 10 µM |  | 1 µM | 
C/C(=C\c1ccccc1)CN1CCC(n2cnn(-c3ccc(CN4CCOCC4)cc3)c2=O)CC1 [compound 80] | 0.0631 µM |  | 0.0398 µM | 
COc1ccccc1C1CCN(c2ccc(-n3cnn(CCNCCOc4ccccc4)c3=O)cc2)C1 (stereo not drawn) [compound 15] | 0.794 µM |  | 0.1 µM | 
O=c1n(-c2ccc(CN3CCOCC3)cc2)cnn1CCNCCOc1ccc(F)cc1 [compound 25] | 2.51 µM |  | 0.0501 µM | 
O=c1n(-c2ccc(CN3CCOCC3)cc2)cnn1CC1CCN(Cc2ccc3ccccc3c2)CC1 [compound 74] | 0.794 µM |  | 0.158 µM | 
COc1ccc(N2CCN(c3ccc(-n4cnn(Cc5ccc(CN)cc5)c4=O)cc3)CC2)cc1 [compound 11] | 7.94 µM |  | 0.794 µM | 
C/C(=C\c1ccccc1)CN1CCC(n2ncn(-c3ccc(CN4CCOCC4)cc3)c2=O)CC1 [compound 69] | 0.158 µM |  | 0.0251 µM | 
CC(NCCOc1ccccc1)C(C)n1ncn(-c2ccc(N3CCN(c4ccc(O)cc4)CC3)cc2)c1=O (single isomer, unassigned) [compound 6] | 7.94 µM |  | 0.2 µM | 
COc1ccc(N2CCN(c3ccc(-n4cnn(C5CCN(C/C(C)=C/c6ccccc6)CC5)c4=O)cc3)CC2)cc1 [compound 57] | > 10 µM |  | 0.0794 µM | 

Second part, the compound after the results:

IC50 [1] | IC50 [2] | IC50 [3] | pIC50 α2B [2] | SMILES
0.0398 µM | 0.00501 µM | 0.002 µM |  | CN1CCCN(c2ccc(-n3cnn(CC4CCN(CCOc5ccccc5)CC4)c3=O)cc2)CC1 [compound 60]
0.0398 µM | 0.00794 µM | 0.00251 µM |  | O=c1n(-c2ccc(CN3CCC(N4CCCC4)CC3)cc2)cnn1CC1CCN(CCOc2ccccc2)CC1 [compound 68]
0.251 µM | 0.251 µM | 0.02 µM |  | O=c1n(CCN2CCOCC2)cnn1CC1CCN(CCOc2ccccc2)CC1 [compound 71]
0.0631 µM |  | 0.00158 µM |  | N#Cc1cccc(NCCCN2CCN(CCn3ncn(CC4CCN(CCOc5ccccc5)CC4)c3=O)CC2)c1 [compound 124]
0.0501 µM |  | 0.00251 µM |  | O=c1n(CC2CCN(CCOc3ccccc3)CC2)cnn1CCN1CCN(Cc2cc3ccccc3s2)CC1 [compound 130]
0.0794 µM |  | 0.0126 µM |  | O=c1n(CC2CCN(CCOc3ccccc3)CC2)cnn1CCN1CCN(Cc2cc3ccccc3[nH]2)CC1 [compound 128]
0.0631 µM |  | 0.00501 µM |  | CC(C)(C)C(=O)Cn1cnn(CC2CCN(CCOc3ccccc3)CC2)c1=O [compound 132]
0.0501 µM |  | 0.002 µM |  | O=c1n(CC2CCN(CCOc3ccccc3)CC2)cnn1CCN1CCN(Cc2c[nH]c3ccc(F)cc23)CC1 [compound 129]
0.0631 µM |  | 0.00398 µM |  | O=c1n(CC2CCN(CCOc3ccccc3)CC2)cnn1CCN1CCN(c2cccc3c2OCCO3)CC1 [compound 127]
0.2 µM |  | 0.0126 µM |  | O=c1n(CC2CCN(CCOc3ccccc3)CC2)cnn1CCN1CCN(Cc2ccc3ncccc3c2)CC1 [compound 126]
0.126 µM |  | 0.00794 µM |  | O=c1n(CC2CCN(CCOc3ccccc3)CC2)cnn1CCN1CC2CC=CCC1CN2c1ccc2ccccc2c1 (stereo not drawn) [compound 131]
